Source: PubChem BioAssay AID720512 (Broad Institute, 2013)
The source made the active and inactive calls. How the calls were made is not given here.

Biological target: Toxin B (TcdB) glycohydrolase, Clostridioides difficile 630
Experiment: TcdB glycohydrolase inhibitors, dose response, biochemical, cherry-pick, plate reader (AID 720512)
Conditions: recombinant TcdB glycohydrolase activity; for activity change, negative = inhibition: at 19.5 µM (top of the series)

SMILES	AC50	activity change, negative = inhibition
CC1(C)Cc2c(sc3ncn4c(=S)[nH]nc4c23)CO1	> 39 µM (inactive)	–
Cc1cc(C(=O)NNc2ccc(C)c(C)c2)no1	2.24 µM	–
COC(=O)C(C(=O)OC)C(CC(=O)c1ccc(Br)cc1)c1ccccc1 (configuration not stated)	–	inactive
COc1cc(/C=N/NC(=O)CCN2CCCCC2)ccc1O	–	inactive
CCOc1ccc(S(=O)(=O)NCc2ccccc2Cl)cc1C(N)=O	–	inactive
Cc1ccc(NC(=O)OC(C)N2CCCCC2)cc1NC(=O)OC(C)N1CCCCC1 (configuration not stated)	–	inactive
Cc1cccc(-c2n[nH]c(=S)n2/N=C/C=C/c2ccco2)c1	–	inactive
Oc1ccc(Cc2ccccc2Cl)c(O)c1	> 39 µM (inactive)	–
CC(=O)Nc1cccc(NC(=O)c2ccc(Br)cc2)c1	–	inactive
O=C1NN=C2CCCCCCC12 (configuration not stated)	–	inactive
CNC(=O)C[C@H]1CC[C@@H]2[C@H](COc3ccc(NC(=O)c4ccc(OC)cc4)cc3C(=O)N2C)O1	–	inactive
Cc1cc2c(cc1S(=O)(=O)N(C)c1ccccc1)NC(=O)CO2	–	inactive
COc1ccccc1-n1c(CCC(=O)O)ccc1-c1ccccc1	–	inactive
Cc1nn2cc(-c3cccc(Cl)c3)cnc2c1Br	–	inactive
Nn1c(SCc2ccccc2F)nnc1-c1ccccn1	–	inactive
Cc1ccc2c(c1)-c1c(cnn1CC(=O)NC(C)CCc1ccco1)CO2 (configuration not stated)	–	inactive
CCOC(=O)c1sc2nc(OCCN3CCOCC3)cc(C)c2c1N	–	inactive
Cc1cc(SCC(=O)N/N=C/c2ccco2)nc2ccccc12	–	inactive
O=C(/C=C/c1ccccc1)Nc1cccnc1Cl	–	inactive
O=C(NC(=S)NNC(=O)c1ccccc1F)c1cccnc1	–	inactive
COc1cc(/C(C)=N/NC(=O)CSc2nnc(C)s2)ccc1O	–	inactive
Nc1ncc(S(=O)(=O)c2ccc([N+](=O)[O-])cc2)s1	> 39 µM (inactive)	–
Cc1ccc(Cc2c(-c3ccc(C)cc3)nc3ccc(Cl)cn23)cc1	–	inactive
COc1ccc(C(NC(C)=O)c2cc(Cl)c3cccnc3c2O)cc1 (configuration not stated)	–	inactive

SMILES	AC50	activity change, negative = inhibition
Cc1nc2[nH]c(=S)[nH]c2c(=O)[nH]1	–	inactive
C[C@@H]1CN([C@H](C)CO)S(=O)(=O)c2ccc(-c3ccncc3)cc2O[C@@H]1CN(C)Cc1ccc(Oc2ccccc2)cc1	–	inactive
O=C(O)C1C(=O)NCC1c1ccccc1 (configuration not stated)	–	inactive
Cc1ccn(CCC(=O)NC2CC(C)(C)Cc3c2cnn3-c2ccccc2C)n1 (configuration not stated)	–	inactive
CCOC(=O)c1nnn(-c2nonc2N)c1-c1ccc(F)cc1	–	inactive
S=c1[nH]nc(NC2CCCCC2)s1	–	inactive
CC(=O)Nc1ccccc1O	–	inactive
CC1CC(=O)N(c2ccc(NCCc3ccc(O)cc3)c([N+](=O)[O-])c2)C1=O (configuration not stated)	–	inactive
O=C(Nc1ccc2c(c1)OCCO2)c1cc2ccccc2o1	–	inactive
Cc1ccc(C(=O)OCC(=O)c2cc(C)n(CC3CCCO3)c2C)cc1 (configuration not stated)	–	inactive
O=[N+]([O-])c1cc(Br)ccc1NS(=O)(=O)c1ccccc1	–	inactive
COc1ccc(C2=NS(=O)(=O)N(C)C(C(=O)NCc3ccc4c(c3)OCO4)=C2)cc1	–	inactive
C=CCOc1cccc(CNc2ccc3[nH]c(=O)[nH]c3c2)c1	–	inactive
O=C(Cn1cc(COc2ccc(Cl)c(Cl)c2)nn1)NS(=O)(=O)c1ccccc1OC(F)(F)F	–	inactive
COc1ccccc1C=C1SC(=S)NC1=O	–	inactive
CC(C)CC(=O)N1CCN(Cc2ccc(Br)cc2)CC1	–	inactive
NC(=O)NN=C1CC2CC1C1C=CCC21 (configuration not stated)	–	inactive
Cc1ccc(CNCCCn2cnc(C(=O)Nc3ccc(C)c(C)c3)n2)o1	–	inactive
Nc1ccc(OC(=O)Nc2ccc(O)cc2)cc1	–	inactive
CNC(=O)C1CCN(S(=O)(=O)c2c(C)noc2/C=C/c2cccc(C)c2)CC1	–	inactive
CN1CC(=O)N/C1=N\C(=O)Nc1ccc(O)cc1	–	inactive
CN1/C(=C/C=C/c2n(C)c3cc([N+](=O)[O-])c([N+](=O)[O-])cc3[n+]2C)C(C)(C)c2ccccc21	> 39 µM (inactive)	–
NS(=O)(=O)c1cccc(NC(=O)c2ccc(NS(=O)(=O)c3cccc([N+](=O)[O-])c3)cc2)c1	–	inactive
